Where two headings read alike, the source gives them in different places.
Legend:
[1] = target: T1, human DGKζ (Homo sapiens (Human), UniProt Q13574); assay: DGKζ assay (detergent/lipid micelle substrate); format: biochemical
How it was run: (§1)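 Full-length human DGKα or DGKζ (C-terminal His tag, Sf9-expressed; 20 nM 4× stock) was preincubated 10 min at room temperature with PS/DAG octyl glucoside micelles in MOPS pH 7.5 buffer with MgCl2, CaCl2 and DTT. It was then started with ATP (300 uM addition) and run for 1 hr, with ADP-Glo luminescence read-out.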

[2] = target: T1, human DGKζ; assay: DGKζ LIPGLO assay (extruded liposome substrate); format: biochemical
How it was run: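 Recombinant DGKζ (Sf9-expressed, Ni/SEC/SP-purified) preincubated 10 min with extruded 100 nm PC/DAG/PS liposomes in 50 mM MOPS pH 7.5, 100 mM NaCl, 10 mM MgCl2, 1 μM CaCl2, 1 mM DTT. Started with 300 uM ATP solution (stock, pre-addition); 1 hr reaction. ADP-Glo luminescence; IC50 from 11 concentrations.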

[3] = target: T2, human DGKα (Homo sapiens (Human), UniProt P23743); assay: DGKα LIPGLO assay (extruded liposome substrate); format: biochemical
How it was run: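 Human full-length DGKα, His-tagged and produced in Sf9 cells, assayed at 20 nM (4× stock) on extruded liposomes of PS, 0.25 mM DAG and 2.75 mM PC, preincubated 10 min. Reaction started with 300 μM ATP (stock) and ran 1 h in MOPS pH 7.5/MgCl2/CaCl2/DTT buffer.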

[4] = target: T2, human DGKα; assay: biochemical; settings: detergent/lipid micelle substrate; read-out: DGKα IC50
How it was run: as §1

[5] = system: pre-activated CD4 T cells and Raji cells; assay: Raji CD4 T Cell IL2 Assay; format: cell-based
[6] = detergent/lipid micelle substrate, read-out: DGKζ IC50
[7] = extruded liposome substrate, read-out: DGKζ LIPGLO IC50
[8] = DGKζ IC50, detergent/lipid micelle substrate
[9] = DGKζ LIPGLO IC50, extruded liposome substrate

T1 sequence (Q13574 other isoform, or with tags, fused parts or gaps): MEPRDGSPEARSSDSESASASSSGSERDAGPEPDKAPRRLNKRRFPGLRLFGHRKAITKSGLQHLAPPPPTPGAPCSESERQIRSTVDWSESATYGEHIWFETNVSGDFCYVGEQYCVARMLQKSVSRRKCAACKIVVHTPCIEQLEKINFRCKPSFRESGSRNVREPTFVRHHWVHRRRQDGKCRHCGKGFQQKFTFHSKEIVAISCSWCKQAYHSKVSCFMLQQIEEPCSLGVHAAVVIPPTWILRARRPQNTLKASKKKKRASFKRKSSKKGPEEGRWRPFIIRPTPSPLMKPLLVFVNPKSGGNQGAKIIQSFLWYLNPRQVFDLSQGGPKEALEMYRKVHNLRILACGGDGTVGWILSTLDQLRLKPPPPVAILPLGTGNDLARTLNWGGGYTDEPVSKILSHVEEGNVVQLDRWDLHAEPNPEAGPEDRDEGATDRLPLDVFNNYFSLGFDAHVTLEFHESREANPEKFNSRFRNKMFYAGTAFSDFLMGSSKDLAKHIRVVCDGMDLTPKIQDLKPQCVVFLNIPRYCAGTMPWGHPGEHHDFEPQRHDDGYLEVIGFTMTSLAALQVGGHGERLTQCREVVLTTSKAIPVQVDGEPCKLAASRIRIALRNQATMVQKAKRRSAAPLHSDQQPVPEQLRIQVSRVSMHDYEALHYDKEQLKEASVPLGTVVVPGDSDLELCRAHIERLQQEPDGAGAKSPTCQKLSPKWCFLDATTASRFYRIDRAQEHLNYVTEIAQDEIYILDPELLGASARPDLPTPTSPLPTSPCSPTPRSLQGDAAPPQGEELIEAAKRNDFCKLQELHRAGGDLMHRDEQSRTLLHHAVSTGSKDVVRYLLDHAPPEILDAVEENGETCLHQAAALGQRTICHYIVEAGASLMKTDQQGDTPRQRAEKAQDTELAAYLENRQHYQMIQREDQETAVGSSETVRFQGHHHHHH
T2 sequence (P23743 other isoform, or with tags, fused parts or gaps): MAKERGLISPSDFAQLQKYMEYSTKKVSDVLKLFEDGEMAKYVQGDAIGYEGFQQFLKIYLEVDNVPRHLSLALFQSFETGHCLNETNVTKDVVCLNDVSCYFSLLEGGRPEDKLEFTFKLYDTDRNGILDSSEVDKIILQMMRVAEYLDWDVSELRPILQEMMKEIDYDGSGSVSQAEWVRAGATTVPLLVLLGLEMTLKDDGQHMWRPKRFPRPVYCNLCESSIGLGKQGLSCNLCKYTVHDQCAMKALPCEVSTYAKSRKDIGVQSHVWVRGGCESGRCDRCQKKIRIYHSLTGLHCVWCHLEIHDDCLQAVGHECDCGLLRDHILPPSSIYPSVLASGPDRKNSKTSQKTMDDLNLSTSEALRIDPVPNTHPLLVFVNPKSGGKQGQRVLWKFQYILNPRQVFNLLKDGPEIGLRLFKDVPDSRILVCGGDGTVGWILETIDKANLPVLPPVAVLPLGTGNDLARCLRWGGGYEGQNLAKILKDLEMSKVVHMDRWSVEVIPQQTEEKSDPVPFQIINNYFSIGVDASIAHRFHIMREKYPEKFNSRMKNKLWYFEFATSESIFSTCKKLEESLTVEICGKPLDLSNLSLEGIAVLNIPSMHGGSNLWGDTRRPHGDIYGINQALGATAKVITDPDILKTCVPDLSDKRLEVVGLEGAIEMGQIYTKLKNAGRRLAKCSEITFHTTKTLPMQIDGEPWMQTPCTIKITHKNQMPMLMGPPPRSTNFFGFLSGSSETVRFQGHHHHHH

| SMILES | IC50 [1, 6] [nM] | IC50 [2, 7] [nM] | IC50 [3] [nM] | IC50 [4] [nM] | IC50 ([5]; Homo sapiens, Raji) [nM] | IC50 [5] [nM] | IC50 [1, 8] [nM] | IC50 [2, 9] [nM] |
| --- | --- | --- | --- | --- | --- | --- | --- | --- |
| Cn1c(=O)c(C#N)c(N2CCN(C(c3ccc(F)cc3)c3ccc(F)cc3)CC2)c2nc(Cl)ccc21 [Example 218, 4-(4-(bis(4-fluorophenyl)methyl)piperazin-1-yl)-6-chloro-1-methyl-2-oxo-1,2-dihydro-1,5-naphthyridine-3-carbonitrile] | > 81000 | 5100 | 1500 | 690 | 93 |  |  |  |
| Cn1c(=O)c(C#N)c(N2CCN(Cc3cc(F)cc(C(F)(F)F)c3)CC2)c2nc(Cl)ccc21 [Example 313, 6-chloro-4-(4-{[3-fluoro-5-(trifluoromethyl)phenyl]methyl}piperazin-1-yl)-1-methyl-2-oxo-1,2-dihydro-1,5-naphthyridine-3-carbonitrile] | > 81000 | 62000 | 17000 | 1500 | 250 |  |  |  |
| CC(c1ccc(F)cc1)N1CCN(c2c(C#N)c(=O)n(C)c3ccc(Br)nc23)CC1 (single isomer, unassigned) [Example 24, 6-bromo-4-{4-[1-(4-fluorophenyl)ethyl]piperazin-1-yl}-1-methyl-2-oxo-1,2-dihydro-1,5-naphthyridine-3-carbonitrile] | > 240000 | 90000 | 150 | 34 |  | 12 |  |  |
| C#CCn1c(=O)c(C#N)c(N2CCN(Cc3ccccc3O)CC2)c2nc(Br)ccc21 [Example 65, 6-bromo-4-(4-(2-hydroxybenzyl)piperazin-1-yl)-2-oxo-1-(prop-2-yn-1-yl)-1,2-dihydro-1,5-naphthyridine-3-carbonitrile] | 20000 | 3700 | 510 | 290 | 5.5 |  |  |  |
| COc1ccc(CN2CCN(c3c(C#N)c(=O)n(C)c4ccc(Cl)nc34)CC2)cc1F [Example 279, 6-chloro-4-{4-[(3-fluoro-4-methoxyphenyl)methyl]piperazin-1-yl}-1-methyl-2-oxo-1,2-dihydro-1,5-naphthyridine-3-carbonitrile] | 56000 | 5800 | 810 | 380 | 92 |  |  |  |
| CC(c1ccc(F)cc1)N1CCN(c2c([N+](=O)[O-])c(=O)n(C)c3ccc(C#N)nc23)CC1 (single isomer, unassigned) [Example 45, 8-(4-(1-(4-fluorophenyl)ethyl)piperazin-1-yl)-5-methyl-7-nitro-6-oxo-5,6-dihydro-1,5-naphthyridine-2-carbonitrile] | 36000 | 6800 | 390 | 100 | 62 |  |  |  |
| Cc1cccc(Cl)c1CN1CCN(c2c(C#N)c(=O)n(C)c3ccc(Cl)nc23)CC1 [Example 419, 6-chloro-4-{4-[(2-chloro-6-methylphenyl)methyl]piperazin-1-yl}-1-methyl-2-oxo-1,2-dihydro-1,5-naphthyridine-3-carbonitrile] | > 81000 | 15000 | 49000 | 81000 | 290 |  |  |  |
| C=CCOc1cc(F)ccc1C(C)N1CCN(c2c(C#N)c(=O)n(C)c3ccc(Cl)nc23)CC1 (centres unmarked) [Example 195, 4-(4-(1-(2-(allyloxy)-4-fluorophenyl)ethyl)piperazin-1-yl)-6-chloro-1-methyl-2-oxo-1,2-dihydro-1,5-naphthyridine-3-carbonitrile] | > 240000 | 98000 | 1700 | 220 | 120 |  |  |  |
| COc1cc(F)ccc1C(c1ccc(F)cc1)N1CCN(c2c([N+](=O)[O-])c(=O)n(C)c3ccc(C#N)nc23)CC1 (single isomer, unassigned) [Example 125, 8-(4-((4-fluoro-2-methoxyphenyl)(4-fluorophenyl)methyl)piperazin-1-yl)-5-methyl-7-nitro-6-oxo-5,6-dihydro-1,5-naphthyridine-2-carbonitrile] |  |  | 11000 | 4300 | 23 |  | 7900 | 2300 |
| C#CCn1c(=O)c(C#N)c(N2CCN(C(c3ccc(F)cc3)c3ccc(F)cc3)CC2)c2nc(Br)ccc21 [Example 229, 4-(4-(bis(4-fluorophenyl)methyl)piperazin-1-yl)-6-bromo-2-oxo-1-(prop-2-yn-1-yl)-1,2-dihydro-1,5-naphthyridine-3-carbonitrile] | 14000 | 11000 | > 240000 | 14000 | 120 |  |  |  |
| Cn1c(=O)c([N+](=O)[O-])c(N2CCN(C(c3ccc(F)cc3)C3CC3)CC2)c2nc(C#N)ccc21 (single isomer, unassigned) [Example 50, 8-(4-(cyclopropyl(4-fluorophenyl)methyl)piperazin-1-yl)-5-methyl-7-nitro-6-oxo-5,6-dihydro-1,5-naphthyridine-2-carbonitrile] | 39000 | 5700 | 2100 | 990 |  | 39 |  |  |
| CCC(c1ccc(F)cc1)N1CCN(c2c([N+](=O)[O-])c(=O)n(C)c3ccc(C#N)nc23)CC1 (single isomer, unassigned) [Example 33, 8-{4-[1-(4-fluorophenyl)propyl]piperazin-1-yl}-5-methyl-7-nitro-6-oxo-5,6-dihydro-1,5-naphthyridine-2-carbonitrile] |  |  | 1700 | 750 | 18 |  | 7600 | 1700 |
| CC(C)C(c1ccc(F)cc1)N1CCN(c2c(C#N)c(=O)n(C)c3ccc(Cl)nc23)CC1 (single isomer, unassigned) [Example 316, 6-chloro-4-{4-[1-(4-fluorophenyl)-2-methylpropyl]piperazin-1-yl}-methyl-2-oxo-1,2-dihydro-1,5-naphthyridine-3-carbonitrile] | > 240000 | > 240000 | 250 | 400 |  | 410 |  |  |
| COc1cc(F)ccc1C(c1ccc(F)cc1)N1CCN(c2c(C#N)c(=O)n(C)c3ccc(Br)nc23)CC1 (single isomer, unassigned) [Example 16, 6-bromo-4-{4-[(4-fluoro-2-methoxyphenyl)(4-fluorophenyl)methyl]piperazin-1-yl}-1-methyl-2-oxo-1,2-dihydro-1,5-naphthyridine-3-carbonitrile] | > 240000 | 27000 | 4300 | 6400 | 21 |  |  |  |
| Cn1c(=O)c(C#N)c(N2CCN(Cc3cccc4ccccc34)CC2)c2nc(Cl)ccc21 [Example 221, 6-chloro-1-methyl-4-(4-(naphthalen-1-ylmethyl)piperazin-1-yl)-2-oxo-1,2-dihydro-1,5-naphthyridine-3-carbonitrile] | > 240000 | 18000 | 3400 | 740 | 330 |  |  |  |
| Cn1c(=O)c([N+](=O)[O-])c(N2CCN(C(c3ccc(F)cc3)c3ccc(F)cc3)CC2)c2ncccc21 [Example 3, 4-(4-(bis(4-fluorophenyl)methyl)piperazin-1-yl)-1-methyl-3-nitro-1,5-naphthyridin-2(1H)-one] | > 240000 | 2300 | 3800 | 2100 | 310 |  |  |  |

Reference: patent US11866430B2, “Naphthyridinone compounds useful as T cell activators” (priority 2018, dated 2024)
